Patent US8257931B2 (President and Fellows of Harvard College, priority 2005, dated 2012)
Where “and” joins values, the source holds several entries; their conditions need not be identical. Equal entries are not always repeated. Where two headings read alike, the source gives them in different places.

Legend:
eIF4E/eIF4G interaction = molecular target: T1, eIF4E/eIF4G interaction (Mus musculus, UniProt P63073); experiment: Fluorescence polarization assay: binding of fluorescein-labeled eIF4G peptide to eIF4E; parameters: species or system murine; conditions: triplicate, SD<±10%; for IC50: read-out: IC50 (μM) (4E/4G FP)
T1 construct: made in house; host or cells: E. coli
Protocol: We adapted this assay to a microwell plate format and used it to screen the 16,000 compound Chembridge DiverSet E library. […] For screening and subsequent peptide binding assays measurements of fluorescence polarization were made using an LJL Analyst plate reader. For the screening assay a solution containing approximately 5 μM meIF4E, 60 nM labeled peptide, 0.05% bovine γ-globulin, and 2 mM DTT in a buffer composed of 50 mM sodium phosphate and 50 mM potassium chloride at pH 6.5 was used. […] The curve fitting for estimation of binding constants used equations derived by Roehrl et al.^22 Measurements of fluorescence polarization and anisotropy were made in black 384-well plates (Corning) using an Analyst plate reader (LJL Biosystems) Compounds were transferred to plates during the screening using a custom-built Seiko pin transfer robot at the Institute for Chemistry and Cell Biology (ICCB) at Harvard Medical School.
A fluorescence polarization (FP) assay was developed to measure binding of a peptide containing the conserved eIF4E-binding motif to eIF4E.
The assay was adapted to a microwell plate format and used to screen a number of libraries comprised of small molecule libraries for potential eIF4E/eIF4G interaction inhibitors.

A549 lung cancer cells = experiment: A549 proliferation, sulforhodamine B (SRB) assay; type: cell-based, human; conditions: sulforhodamine B assay, triplicate
Protocol: FIG. 28 is a graph showing the results of a cell proliferation assay. A549 cells, which are human lung cancer cells, are grown in plates for five days in medium containing 5% FCS and compound. The number of cells is quantified by staining with sulforhodamine B.

[1] = Homo sapiens, A549, Table 1 of b280
[2] = Homo sapiens, A549, Table 1 of b347

T1 sequence (P63073 whole entry): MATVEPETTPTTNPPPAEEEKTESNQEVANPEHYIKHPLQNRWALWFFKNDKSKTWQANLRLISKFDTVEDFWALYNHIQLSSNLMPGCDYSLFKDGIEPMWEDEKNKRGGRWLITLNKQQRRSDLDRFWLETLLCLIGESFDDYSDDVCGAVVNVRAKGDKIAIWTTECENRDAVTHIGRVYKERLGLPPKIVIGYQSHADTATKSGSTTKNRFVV

SMILES | IC50 (eIF4E/eIF4G interaction; Table 1 of b347) | IC50 (eIF4E/eIF4G interaction; Table 1 of b280) | GI50 (A549 lung cancer cells; Table 1) | further results
O=C(NC(Cc1ccccc1)C(=O)O)c1nc(-c2ccccc2)cs1 (stereo not shown) [compound 18, 3-Phenyl-2-[(4-phenyl-thiazole-2-carbonyl)-amino]-propionic acid] | > 600 µM | – | – | –
O=C(O)C(Cc1ccccc1[N+](=O)[O-])=NNc1nc(-c2ccc(/N=N/c3ccccc3)cc2)cs1 (mixture of isomers) | – | 150 µM | – | GI50 (A549 lung cancer cells; [1]): 4 µM
NC(=O)/C(Cc1ccccc1)=N/Nc1nc(-c2ccccc2)cs1 [E-21, 3-Phenyl-2-[(4-phenyl-thiazol-2-yl)-hydrazono]-propionamide] | > 600 µM | – | – | –
O=C(O)/C(Cc1ccccc1)=N/Nc1nc(-c2ccccc2)cs1 [E-4, 3-Phenyl-2-[(4-phenyl-thiazol-2-yl)-hydrazono]-propionic acid] | > 600 µM | > 600 µM | 14 µM and 17 µM | GI50 (A549 lung cancer cells; Table 1, listed as E-4c): 16 µM
O=C(O)/C(Cc1ccccc1)=N\Nc1nnc(-c2ccccc2)s1 [Z-16, 3-Phenyl-2-[(5-phenyl-[1,3,4]thiadiazol-2-yl)-hydrazono]-propionic acid] | > 600 µM | > 600 µM | – | GI50 (A549 lung cancer cells; [1]): > 10 µM; GI50 (A549 lung cancer cells; [2]): > 10 µM
O=C(O)/C(Cc1ccccc1)=N/Nc1nc(-c2ccc(Cl)c(Cl)c2)cs1 [Z-3, 2-{[4-(3,4-Dichloro-phenyl)thiazol-2-yl]-hydrazono}-3-phenyl-propionic acid] | – | 300 µM | 14 µM | GI50 (A549 lung cancer cells; Table 1, listed as Z-4s): 14 µM
O=C(O)C(Cc1ccccc1)C(=O)Nc1nc(-c2ccccc2)cs1 (stereo not shown) [drawing 70] | – | > 600 µM | – | –
COC(=O)/C(Cc1ccccc1)=N/Nc1nc(-c2ccccc2)cs1 [Z-13, 3-Phenyl-2-[(4-phenyl-thiazol-2-yl)-hydrazono]-propionic acid methyl ester] | > 600 µM | > 600 µM | – | GI50 (A549 lung cancer cells; [1]): 11 µM; GI50 (A549 lung cancer cells; [2]): 11 µM
O=[N+]([O-])c1ccccc1CC(CO)NNc1nc(-c2ccc(Cl)c(Cl)c2)cs1 (stereo not shown) [compound 14, 2-{N′-[4-(3,4-Dichloro-phenyl)-thiazol-2-yl]-hydrazino}-3-(2-nitro-phenyl)-propan-1-ol] | > 600 µM | – | – | GI50 (A549 lung cancer cells; [2]): 4 µM
O=C(O)C(Cc1ccccc1)NCc1nc(-c2ccccc2)cs1 (stereo not shown) [compound 20, 3-Phenyl-2-[(4-phenyl-thiazol-2-ylmethyl)-amino]-propionic acid] | – | – | – | IC50 (μM) (4E/4G FP) (eIF4E/eIF4G interaction; Table 1 of b347): insoluble
O=C(O)/C(Cc1ccccc1[N+](=O)[O-])=N/Nc1nc(-c2ccccc2)cs1 [Z-2] | > 600 µM | > 600 µM | > 20 µM | GI50 (A549 lung cancer cells; Table 1, listed as Z-4r): > 20 µM
O=C(O)C(CNc1nc(-c2ccccc2)cs1)Cc1ccccc1 (stereo not shown) [compound 22, 2-Benzyl-3-(4-phenyl-thiazol-2-ylamino)-propionic acid] | > 600 µM | – | – | –
O=C(O)/C(Cc1ccccc1)=N/Nc1nc(-c2ccccc2)cs1 [Z-4, 3-Phenyl-2-[(4-phenyl-thiazol-2-yl)-hydrazono]-propionic acid] | 240 µM | 240 µM | – | GI50 (A549 lung cancer cells; [1]): 17 µM; GI50 (A549 lung cancer cells; [2]): > 20 µM
O=C(O)/C(Cc1ccccc1[N+](=O)[O-])=N/Nc1nc(-c2ccc(Cl)c(Cl)c2)cs1 [Z-1, 2-{[4-(3,4-Dichloro-phenyl)-thiazol-2-yl]-hydrazono}-3-(2-nitro-phenyl)-propionic acid] | – | – | – | GI50 (A549 lung cancer cells; [1]): 6 µM; GI50 (A549 lung cancer cells; [2]): 5 ± 1 µM
O=C(O)/C(Cc1ccccc1[N+](=O)[O-])=N/Nc1nc(-c2ccc(N3CCCC3)cc2)cs1 | – | > 600 µM | – | GI50 (A549 lung cancer cells; [1]): > 20 µM
OC/C(Cc1ccccc1)=N/Nc1nc(-c2ccccc2)cs1 [Z-15, 3-Phenyl-2-[(4-phenyl-thiazol-2-yl)-hydrazono]-propan-1-ol] | > 600 µM | > 600 µM | – | GI50 (A549 lung cancer cells; [1]): 14 µM; GI50 (A549 lung cancer cells; [2]): 14 µM
O=C(O)/C(Cc1ccccc1[N+](=O)[O-])=N/Nc1nc(-c2ccc(-c3ccccc3)cc2)cs1 | – | – | – | GI50 (A549 lung cancer cells; [1]): 4 µM
O=C(O)/C(Cc1ccccc1)=N/Nc1nc(-c2ccccc2)c(-c2ccccc2)s1 [E-10, 2-[(4,5-Diphenyl-thiazol-2-yl)-hydrazono]-3-phenyl-propionic acid] | 100 µM and 88 µM | 90 µM | 1.5 µM | GI50 (A549 lung cancer cells; Table 1, listed as E-4o): 1.5 µM

SMILES | IC50 (eIF4E/eIF4G interaction; Table 1 of b347) | IC50 (eIF4E/eIF4G interaction; Table 1 of b280) | GI50 (A549 lung cancer cells; Table 1) | further results
O=C(O)/C(Cc1ccccc1[N+](=O)[O-])=N/Nc1nc(-c2ccccc2)cs1 [E-2] | – | – | 7 µM | GI50 (A549 lung cancer cells; Table 1, listed as E-4r): 7 µM
O=C(Cc1ccccc1)NNc1nc(-c2ccccc2)cs1 [compound 12] | > 600 µM | – | – | GI50 (A549 lung cancer cells; [2]): > 20 µM
O=C(O)C(Cc1ccccc1)C(=O)Nc1nc(-c2ccccc2)cs1 (stereo not shown) [compound 19, 2-Benzyl-N-(4-phenyl-thiazol-2-yl)-malonamic acid] | > 600 µM | – | – | –
Cc1sc(N/N=C(\Cc2ccccc2)C(=O)O)nc1-c1ccccc1 [E-9, 2-[(5-Methyl-4-phenyl-thiazol-2-yl)-hydrazono]-3-phenyl-propionic acid] | > 300 µM | 350 µM | 6 µM | GI50 (A549 lung cancer cells; Table 1, listed as E-4n): 6 µM
O=C(O)/C(Cc1ccccc1[N+](=O)[O-])=N/Nc1nc(-c2ccc(Cl)c(Cl)c2)cs1 [E-1, 2-{[4-(3,4-Dichloro-phenyl)-thiazol-2-yl]-hydrazono}-3-(2-nitro-phenyl)-propionic acid] | – | – | 3 µM | GI50 (A549 lung cancer cells; Table 1, listed as E-4a): 3 µM
O=C(O)/C(Cc1ccccc1)=N/Nc1nc(-c2ccc(Cl)c(Cl)c2)cs1 [E-3, 2-{[4-(3,4-Dichloro-phenyl)thiazol-2-yl]-hydrazono}-3-phenyl-propionic acid] | 355 µM | 355 µM | 6.5 µM | GI50 (A549 lung cancer cells; Table 1, listed as E-4s): 6.5 µM
O=C(O)/C(Cc1ccccc1)=N/Nc1nc2ccccc2s1 [E-11, 2-(Benzothiazol-2-yl-hydrazono)-3-phenyl-propionic acid] | – | – | 4 µM | GI50 (A549 lung cancer cells; Table 1, listed as E-4p): 4 µM
O=C(O)/C(Cc1ccccc1)=N/Nc1ccc(-c2ccccc2)nn1 [Z-17, 3-Phenyl-2-[(6-phenyl-pyridazin-3-yl)-hydrazono]-propionic acid] | – | > 600 µM | – | GI50 (A549 lung cancer cells; [1]): > 10 µM
O=C(NC(Cc1ccccc1)C(=O)O)c1nc(-c2ccccc2)cs1 (stereo not shown) [drawing 69] | – | > 600 µM | – | –
O=C(O)C(Cc1ccccc1)=NNc1nc(-c2ccc(C3CCCCC3)cc2)cs1 (mixture of isomers) | – | 100 µM | – | –
C/C(=N\Nc1nc(-c2ccccc2)cs1)C(=O)O [Z-7, 2-[(4-Phenyl-thiazol-2-yl)-hydrazono]-propionic acid] | > 600 µM | > 600 µM | – | GI50 (A549 lung cancer cells; [1]): > 20 µM; GI50 (A549 lung cancer cells; [2]): > 20 µM
O=C(O)/C(=C\c1ccccc1)NCc1nc(-c2ccccc2)cs1 | – | > 600 µM | – | –
COC(=O)/C(Cc1ccccc1)=N/Nc1nc(-c2ccccc2)cs1 [E-13, 3-Phenyl-2-[(4-phenyl-thiazol-2-yl)-hydrazono]-propionic acid methyl ester] | – | – | 7 µM | GI50 (A549 lung cancer cells; Table 1, listed as E-4f): 7 µM
O=C(O)/C(Cc1ccccc1)=N/Nc1nc(-c2ccc(N3CCOCC3)cc2)cs1 | – | > 125 µM | – | –
O=C(O)/C(Cc1ccccc1)=N/Nc1nc(-c2ccc3c(c2)OCCCO3)cs1 | – | 400 µM | – | –
O=C(O)C(Cc1ccccc1)NCc1nc(-c2ccccc2)cs1 (stereo not shown) [drawing 71] | – | – | – | IC50 (μM) (4E/4G FP) (eIF4E/eIF4G interaction; Table 1 of b280): insoluble
O=C(O)C(Cc1ccccc1)=NNc1nc(-c2ccc3c(c2)OCCO3)cs1 (mixture of isomers) | – | 170 µM | – | –
O=C(O)/C(=N/Nc1nc(-c2ccccc2)cs1)c1ccccc1 [E-6, Phenyl-[(4-phenyl-thiazol-2-yl)-hydrazono]-acetic acid] | – | – | 10 µM | GI50 (A549 lung cancer cells; Table 1, listed as E-4h): 10 µM
